This is an account of results in the NIST ThermoML archive (doi:10.1021/acs.jced.7b00445).

The nature of series [1]: Boiling temperature at pressure P. To be noted: 101.3 kPa; Liquid; Ebulliometric method (Recirculating still).
The nature of series [2]: refractive index (Na D-line) (dimensionless). Particulars: 298.15 K; 101.33 kPa; Liquid; Standard Abbe refractometry.
For series [3] the following is noted: 298.15 K; 101.33 kPa; Liquid; Pycnometric method.

A word on the refractive index: it is a measure of how strongly the sample bends light. A word on the mass density: it is mass per unit of volume.

± gives the expanded uncertainty stated by the source.

Take `CCC(C)OC(C)=O` (configuration not stated) [1-methylpropyl ethanoate]: in series [1], the “Boiling temperature at pressure P” value is 111.97 ± 0.16 °C. Also, the refractive index in series [2] is given as 1.3872 ± 0.0004. The mass density in series [3] came to 867 ± 2 kg/m3.
In the same order, the values of `CCO` [ethanol] are 78.27 ± 0.16 °C, 1.3596 ± 0.0004 and 786 ± 2 kg/m3.
In the same order, the values of `CCCO` [propan-1-ol] are 97.17 ± 0.16 °C, 1.3842 ± 0.0004 and 802 ± 2 kg/m3.
In the same order, the values of `CC(C)O` [propan-2-ol] are 82.36 ± 0.16 °C, 1.3757 ± 0.0004 and 782 ± 2 kg/m3.
